Results taken from publication PMC12801355, “Peptide Amphiphiles Hitchhike on Endogenous Biomolecules for Enhanced Cancer Imaging and Therapy” (Advanced Materials (Deerfield Beach, Fla.), 2025).
Where a SMILES comes first, the peptide text is derived from it. Where no end group is shown, it is not given here. [ ]: non-standard residue; d: D form. The star is where a group is joined. Dolaproine = CO[C@@H]([C@@H]1CCCN1)[C@@H](C)C(=O)O; Dil = CC[C@H](C)[C@H](NC)[C@@H](CC(=O)O)OC; Palmitoyl = CCCCCCCCCCCCCCCC(=O)*; X1 = C[C@@H](N*)[C@@H](O)c1ccccc1; NMeV = CN[C@H](C(=O)O)C(C)C

Key:
[1] = TEM imaging of PA nanostructures; assay type: physicochemical; settings: ICG conjugated PA, 200 µM in ultrapure water, negative stain
Protocol: For TEM imaging, PAs conjugated with ICG, Cy5 or MMAE were dissolved in ultrapure water at a concentration of 200 µM. Carbonfilm 200 copper mesh TEM grids were glow‐discharged first. Then, PA solutions (15 µL) were placed on the grids, incubated for 10 min before blotting, and air‐dried. 15 µL of ultrapure water was applied to wash the grid for 3 min. After incubation, the water was removed by blotting from the edge of the grid. For negative staining of the samples, a 0.4% uranyl acetate solution was prepared in ultrapure water and filtered using a 0.1 µm syringe filter. 15 µL of filtered uranyl acetate solution was applied to the grid and incubated for 5 min. Finally, TEM grids were blotted to remove excess stain and dried at room temperature. TEM imaging was performed using a Tecnai or Talos microscope (FEI).

[2] = test system: LPs (HDL, LDL, VLDL) and albumin in pooled human plasma; parameters: AUC of all FPLC peaks, lower than SA‐E: unit not given beside the values
[3] = test system: 4T1 mouse breast cancer cells; assay: Cellular uptake of Cy5 labeled PAs; assay type: cell-based
Protocol: To compare the uptake of SA‐E and SA‐K, 1 × 10^5 4T1 cells were grown to near confluency (1–2 days) in 96 well plates with black walls and flat glass bottom. 100% Cy5 conjugated PAs (20 or 10 µM) or 10% Cy5 conjugated PA micelles (10 µM Cy5‐PAs mixed with 90 µM maleimide blocked labeled PAs) were preincubated in 10% FBS containing RPMI for 30 min at 37 °C, wells were aspirated, and 100 µL of media containing PAs were added. The plate was incubated for 30 min for the experiments with 100% Cy5 conjugated PAs. Media were aspirated, wells were washed 3x with 150 µL sterile PBS, and then 100 µL RPMI containing 10% FBS was added to each well. The plate was incubated for 1 h at 37 °C. For 10% and 100% Cy5 micelle uptake comparison, plate was incubated for 2 h at 37 °C with PAs. Then, media containing PAs were aspirated and washed with PBS, as above. Cell nuclei were stained with Hoechst (1:5000 dilution in PBS) for 5 min and then removed. 100 µL of phenol red free RPMI containing 10% FBS was added to each well. […] The microscope incubator was preheated for 30 min to reach 35 °C prior to imaging.
To study the uptake of SA‐E or SA‐K micelles (10% or 100% Cy5 micelles) or No‐SA over time, 4T1 cells were grown to near confluency in a 96 well plate as described above. Cy5 conjugated 100% Cy5 conjugated PAs (20 µM), 10% Cy5 conjugated PAs (10 µM Cy5), or No‐SA (20 µM) or were preincubated in 10% FBS containing RPMI for 30 min at 37 °C. Cell nuclei were stained with Hoechst stain as above. Cell membranes were stained (CellBrite 488, 1:1000 in 10% FBS containing RPMI) for 30 min at 37 °C. Wells were aspirated, and 100 µL of PAs were added to the wells for ≈1 min. Wells were washed with sterile PBS (3x, 150 µL), and Confocal images were taken at different time points (up to 2 h) after PA or No‐SA addition as described above using a 60x objective.

[4] = Fluorescence polarization of PA nanostructures; assay type: physicochemical; settings: 10 mol% ICG conjugated PA (20 µM) with unconjugated PA, 200 µM total, PBS; mean ± SEM, 3 wells
Protocol: ICG (10 mol%) containing PA micelles were prepared by mixing ICG‐conjugated PAs with unconjugated or MMAE‐conjugated PAs to achieve a final concentration of 20 µM ICG‐conjugated PAs and 200 µM of total PAs. Aliquots of 100 µL were added to a 96‐well plate (3 wells for each PA). Fluorescence polarization measurements were performed using a microplate reader (TECAN Spark 20 M). The corrected parallel intensity (I par) and perpendicular intensity (Iper) were used to calculate the fluorescence anisotropy (r) using the following equation: r = […].

[5] = PA fluorescence in liver homogenates; assay type: in vitro ADME; settings: ICG conjugated, 0.1 to 10 µM spiked into mouse liver homogenate, IVIS
Protocol: Liver samples (6.2 g total weight) collected from healthy BALB/cJ mice were placed in a gentleMACS M Tube containing 2 mL of PBS. The M Tube was fitted with a 600 µm mesh strainer, and homogenization was performed using a gentleMACS Dissociator by running a one‐minute program at 1260 rotations per round (rpr) for five cycles. ICG conjugated SA‐E and SA‐K were then spiked into the liver homogenates in a 96‐well plate at final concentrations of 0, 0.1, 0.5, 2.0, 5.0, and 10 µM. Fluorescence signals from the homogenates were measured using an IVIS (PerkinElmer).

4T1 tumor [6] = assay: Tumor accumulation, live IVIS imaging; assay type: in vivo, mouse; settings: 50 nmol IV
Protocol: For tumor accumulation studies in subcutaneous (HCT‐116, A375, TRAMP‐C2, MC38, LLC1, RG2, PDX cell lines, wild type or SR‐B1 ‐/‐ TRAMP‐C2, and wild type or LDL‐R ‐/‐ HeLa), intradermal (A375), or fat pad (4T1 and MCF‐7) tumors, cells were implanted as described above. When the tumors reached a size around ≈0.3–1 cm, mice were injected intravenously with 100 µL of ICG conjugated PAs (in PBS, 0.5 mM) or free ICG (in PBS, 0.5 mM). After probe injections, mice were imaged using the IVIS Spectrum (PerkinElmer) with excitation and emission wavelengths of 745 and 820 nm, respectively, at the specified time points. Living Image (PerkinElmer) software was used for all analyses. For MMTV mice experiments, mice were injected intravenously weekly with SA‐E (100 µL PBS, 0.5 mM) between 71 and 85 days of age and imaged 2 days later in the IVIS. […] SA‐E was injected intravenously (100 µL PBS, 0.5 mM), 2 days later the intestinal tissue was harvested, washed, and analyzed in the IVIS for ICG.

[7] = Blood circulation in mice; assay type: in vivo, mouse
Protocol: For blood circulation experiments, Balb/c mice were injected with 100 µL of ICG conjugated PAs or No‐SA, or free ICG (0.5 mM). Then, blood was drawn via the saphenous vein or retro‐orbitally at different time points (immediately after injection to 1 day). […] Blood from wild type mice was collected to prepare calibration curves for each probe. To each 18 µL aliquot of blood, 2 µL of probe stock solution (0.5 mM) was added and incubated at 37 °C for 1 h. The spiked samples were then serially diluted in blood between 50 and 0.1 µM. For fluorescence measurement, 2 µL of each diluted sample was further diluted into 98 µL of PBS, and ICG fluorescence was measured using a TECAN plate reader.

4T1 tumor [8] = assay: Antitumor effect, 4T1 orthotopic mouse model
Protocol: All experiments were approved by the Oregon Health and Science University (OHSU) Institutional Animal Care and Use Committee (IACUC) (TR01_IP00000674) and conformed to the guidelines set by the United States Animal Welfare Act and the National Institutes of Health. Mice were aged between 3 and 8 months and 20–30 g in weight and were housed in specific pathogen free cages. Human, mouse, or rat cells were injected into nude (The Jackson Laboratory, 002019), NSG mice (The Jackson Laboratory, 005557), Balb/c mice (The Jackson Laboratory, 000651), or C57Bl/6J mice (The Jackson Laboratory, 000664), as specified below. Cells were injected in 100 µL sterile DMEM at a concentration of 0.5–1×10^7 cells mL^−1, unless otherwise specified. For tumor accumulation and biodistribution studies, A375 cells were injected intradermally into the left ears of NSG mice (The Jackson Laboratory, 005557). MCF7 cells were injected into the mammary fat pad of NSG mice. HCT‐116, RG2, and HeLa (wild type or LDL‐R knockout) cells were subcutaneously injected into the left or both flanks of NSG mice. 4T1 cells were injected into the mammary fat pad of Balb/c mice. LLC1, MC38, and TRAMP‐C2 (wild type or SR‐B1 knockout) were injected into C57Bl/6J mice. Patient‐derived xenografts were generated by injecting the patient‐derived cancer cells subcutaneously into the left flank of NSG mice. ApoA1 and LDL‐R knockout mice were purchased from the Jackson Laboratory (002055 and 002207, respectively). MC38 cells were subcutaneously injected into both flanks of these mice. Apc^min and MMTV‐PyMT mice were purchased from the Jackson Laboratory (002020 and 002374). For antitumor activity studies, 4T1 cells were injected into the mammary fat pad of Balb/c mice. HCT‐116 and RG2 cells were subcutaneously injected into the left flanks of nude mice. For antitumor activity studies, HCT‐116 cells were injected in a 1:1 mixture of DMEM and Matrigel (Life Science 354263).
Mice were injected with 4T1, RG2, or HCT‐116 cells as described above. Mice were then treated intravenously with the free MMAE (0.1 or 0.3 mg kg^−1), SA‐E‐MMAE (0.3, 0.6, 0.8, or 1 mg kg^−1) or PBS (10 mM, pH 7.4). 5 doses were given every 2–3 days over 11 days. […] Tumor size and mouse weight were monitored 2–3 times per week until a humane endpoint (tumor size ≈2 cm or >20% body weight loss) or the study endpoint (18, 25, or 120 days for 4T1, RG2, and HCT‐116 studies, respectively). Tumor size was measured in two directions with a caliper rounded to the nearest tenth of a mm. Volume was calculated as a basic sphere of 4/3πr^3.

CCCCCCCCCCCCCCCC(=O)NCC(=O)NCC(=O)NCC(=O)N[C@@H](Cc1c[nH]cn1)C(=O)N[C@@H](C)C(=O)N[C@@H](C)C(=O)N[C@@H](CC(N)=O)C(=O)NCC(=O)N[C@@H](CCCCN)C(=O)N[C@@H](CCCCN)C(=O)N[C@@H](CS)C(=O)N[C@@H](CCCCN)C(=O)O [SA‐K] (Palmitoyl-GGGHAANGKKCK-OH)
diameter of rod‐shaped micelles (TEM) [1]: ≈ 10 nm | length of rod‐shaped micelles (TEM) [1]: several hundred | AUC of all FPLC peaks, lower than SA‐E [2]: ≈ 4.5 | uptake relative to SA‐E ([3]; Cy5 conjugated PAs, 10% FBS RPMI, 30 min incubation then 1 h, confocal): approximately three‐fold | fluorescence anisotropy of ICG in micelles [4]: 0.299 ± 0.008 | fluorescence in liver homogenates, SA‐E versus SA‐K (disassembly) [5]: almost identical fluorescence intensity | maximum TBR, lower than that of SA‐E (4T1 tumor [6]; 4T1 tumor‐bearing mice): approximately two‐fold | maximum tumor signal, lower than maximum of SA‐E (4T1 tumor [6]; 4T1 tumor‐bearing mice): ≈ 6 fold | total tumor accumulation (AUC of tumor signal), lower than SA‐E (4T1 tumor [6]; 4T1 tumor‐bearing mice): ≈ 2.7 fold | time of maximum tumor fluorescence (4T1 tumor [6]; 4T1 tumor‐bearing mice, ICG conjugated): 4 days

CC1(C)C(/C=C/C=C/C=C/C=C2\N(CCCCS(=O)(=O)O)c3ccc4ccccc4c3C2(C)C)=[N+](CCCCS(=O)(=O)[O-])c2ccc3ccccc3c21 [free ICG, indocyanine green]
injected dose still in circulation ([7]; wild type (Balb/c) mice, ICG conjugated or free ICG 50 nmol IV, 6 h post injection, blood fluorescence with calibration curve): not detectable | blood concentration, share of injected dose ([7]; wild type mice, 50 nmol IV, in 30 min): below 1% | TBR (4T1 tumor [6]; all time points): around 1

GGGHAANGEECE [No‐SA]
membrane binding and internalization ([3]; Cy5‐conjugated, 20 µM, ≈1 min exposure, imaging up to 2 h): no significant membrane binding or internalization | TBR compared to SA‐E (4T1 tumor [6]; 4T1 tumor‐bearing mice): significantly lower TBR | clearance from the tumor (4T1 tumor [6]; ICG conjugated, 4T1): mostly cleared in 2 days

CC[C@H](C)[C@@H]([C@@H](CC(=O)N1CCC[C@H]1[C@H](OC)[C@@H](C)C(=O)N[C@H](C)[C@@H](O)c1ccccc1)OC)N(C)C(=O)[C@@H](NC(=O)[C@@H](NC)C(C)C)C(C)C [free MMAE, Monomethyl auristatin E] (H-[NMeV]V[Dil][Dolaproine]-X1)
tolerability (4T1 tumor [8]; 0.1 mg kg^−1 IV, 5 doses, n = 3): tolerated | tolerability (4T1 tumor [8]; 0.3 mg kg^−1 IV, stopped after the third injection, n = 5): high toxicity with rapid weight loss | effect on tumor growth (4T1 tumor [8]; 0.1 or 0.3 mg kg^−1 IV): slight reduction in tumor growth
